Where a SMILES comes first, the peptide text is derived from it. The star is where a group is joined. Cbz = O=C(OCc1ccccc1)*
Tested on: c-MYC
Assay: c-MYC levels in CAL33 and BICR56 cells depleted of LZK
Format: cell-based
Details: 10 μM for six hours; LZK depleted 48 hours
Protocol: CAL33 and BICR56 inducible knockdown cells were generated by SIRION Biotech. MSK921 was generated in-house using lentiviral particles provided by SIRION (generated by transfection of 293TN cells with expression vectors and lentiviral packaging plasmids). Transduction occurred at MOI 5 with 8 μg/mL polybrene. After 24 hours, medium was replaced with fresh medium containing puromycin (Invitrogen) to select for cells that had been effectively transduced. shRNA sequences were […] (sh1; SEQ ID NO: 19) and […] (sh2; SEQ ID NO: 20). The lentiviral expression plasmid was pCLVi(3G)-MCS-Puro, which expresses a doxycycline-responsive transactivator and the shRNA from the same vector. Expression of the transactivator is constitutive, while shRNA expression depends on a doxycycline-inducible promoter. […]
Generally, cells were plated in six-well or 35-mm plates for 24 hours, after which doxycycline was added or treatment with specific inhibitor was administered using 50 FBS media for 48 hours. […] Protein concentrations were determined from the cell lysate by using 660 nm Protein Assay Reagent (Pierce). […] The membranes were incubated with the specific antibodies overnight in […] at 4° C. followed by a 1 hour incubation with the appropriate horseradish peroxidase-conjugated secondary antibodies and signal was detected by chemiluminescence (Thermo Fisher).

Which “c-MYC levels in LZK-depleted cells” value does the source give for `CC(C)C[C@@H](C=O)NC(=O)[C@H](CC(C)C)NC(=O)[C@H](CC(C)C)NC(=O)OCc1ccccc1` [MG132] (Cbz-Leu-Leu-Leu-aldehyde) here?
Its value is “rescued decreases in the c-MYC levels”.

From patent US20240190838A1, “LZK-TARGETING DEGRADERS AND METHODS OF USE” (The U.S.A., as represented by the Secretary, Department of …, priority 2020, published 2024)
